Read-outs that look alike come from different tables or passages of the source.
Assays:
[1] = test system: methicillin-resistant Staphylococcus aureus (MRSA) strains; test: Antibiotic assay (resazurin, Example 1), MRSA strains; assay type: cell-based; conditions: for IC50: read-out: IC50
From the text: (§1) Bacteria Strain. […] The MRSA were obtained as further described below.
(§2) Antibiotic agents. Cyprofloxacin and erythromycin were provided by Sigma-Aldrich. Gentamicin sulfate and vancomycin hydrochloride were provided by Calbiochem.
Isolation and identification of methicillin-resistant Staphylococcus aureus (MRSA) strains. From March 2007 to March 2008, 35 screening swabs from nares (n=31), throat (n=3), Groin pus (n=1) were obtained from patients hospitalized at Chicoutimi hospital. Identification of S. aureus was performed using the Slidex Staph-Kit (bioMerieux Vitek, Inc., Hazelwood, Mo.) according to the manufacturer's instructions. Quality control was performed with MRSA strain ATCC 43300 and S. aureus strain ATCC 25923. In addition, S. aureus profile was determined with API Staph test strip with bacterial suspension of saline McFarland of 0.5 (bioMerieux, Durham, N.C.) according to the manufacturer's protocol. API Staph strips were held for 24 h before the results were read. A latex agglutination (SLIDEX) test detecting methicilin resistance in Staphylococci based on the production of low-affinity PBP2a, which is encoded by the mecA gene was performed on all strains. An antibiogram was also performed to confirm the identification of MRSA strains using disk diffusion test.
Antibiotic susceptibility testing using disk diffusion method. The antimicrobial activity of different classes of antibiotics of the potential MRSA was determined by diffusion method (Kirby-Bauer) as described by NCCLS. The antibiotics tested included: penicillin (10 units), amoxicillin/clavulanic acid (20/10 μg), ciprofloxacin (5 μg), moxifloxacin (5 μg), levofloxacin (5 μg), clindamycin (15 μg), erythromycin (15 μg), cefoxitin (30 μg), linezolid (30 μg), trimethoprim/sulfomethoxazole (1.25/23.75 μg), rifampicin (5 μg), gentamicin (10 μg) and vancomycin (30 μg). The agar medium had pH 7.2 to 7.4 before inoculing potentiel MRSA. The antibiotics were maintained at 8° C. or lower −14° C. according to manufacturer's recommendations. The pure culture was inoculated on a non-selective plate for 18-24 h. Each colony was collected with a wire loop and transfered the growth to a tube containing 4 to 5 mL of a tryptic-soy broth. The inoculum density was standarized with BaSO4 using 0.5 McFarland standard. All strains were incubated at 37° C. until it achieves or exceeds the turbidity of 0.5 McFarland standard. Inoculation of the dried surface (Muller-Hinton agar plate) by streaking the swab over the entire sterile agar surface. This procedure was repeated two more times. After 15 min, the appropriate disk were applied on the surface with a sterile forceps. The inverted plates was placed in a incubator at 37° C./air/16 to 18 h or 24 h for vancomycin. The inhibition zones were measured with a millimetric ruler. Interpretation of zone sizes by references of the manufacturer. Quality control organisms used were ATCC strains number 25923.
(§3) MRSA. Ten (10) strains of MRSA obtained as described above were tested along with an S. aureus wild type (WT) strain (ATCC25923).

[2] = test system: S. aureus wild type strain (ATCC 25923); test: Antibiotic assay (resazurin, Example 1), S. aureus wild type; assay type: cell-based, Staphylococcus aureus
Description: as §1, §2, §3

Enterococcus faecalis = test: Antibiotic assay (resazurin, Example 1), Enterococcus faecalis; assay type: cell-based; conditions: for IC50: read-out: IC50
Description: as §1, §2
(§4) Five additional strains were tested: Streptococcus pneumoniae, Streptococcus agalactiae, Streptococcus pyogenes, Enterococcus faecalis and Corynebacterium jeikeium.

S. epidermidis = test: Antibiotic assay (resazurin, Example 1), S. epidermidis strains
Description: The antibiotic assays were performed in 96-well plates (BD Falcon). The bacteria strains were inoculated in Nutrient Broth (BD) for the gram negative bacteria and Tryptic soy broth (BD) with 10% of defibrinated sheep blood (PML microbiological) for gram positive strain. All bacteria strains were dosed by spectrophotometry at 660 nm where 1 D.O=2×10^8 bacteria/mL. All bacteria were plated in their respective broth at a concentration of 450 000 bacteria/mL.
Compounds I, II and III were diluted in methanol and the above-noted antibiotic agents were diluted in water. The solvent concentration was 0.25%, which was not toxic for the bacteria. Compounds I, II and III and the above-noted antibiotic agents were tested at 8 different concentrations.
Each well contained: 100 μL of bacteria, 50 μL of the compounds tested (compound I, II, III or the above-noted antibiotic agent) and 50 μL of a 4% resazurin (Sigma) solution. The plates were incubated at 37° C. for 5 h. The fluorescence was read using a Fluoroskan Ascent™ FL (thermo) using an excitation wavelength of 530 nm and an emission wavelength of 590 nm.
Two different strains of Staphylococcus were tested, namely the S. epidermidis and the S. aureus strains.

Streptococcus pyogenes = test: Antibiotic assay (resazurin, Example 1), Streptococcus pyogenes; assay type: cell-based; conditions: for IC50: read-out: IC50
Description: as §1, §2, §4

WS-1 cell lines = test: Cytotoxicity assay on WS-1 (Example 1); conditions: Table 5; WS-1, 48 h
Description: Cytotoxicity assay. The cytotoxicity assay was performed in 96-well plates (BD Falcon). The WS-1 cell lines were provided by ATCC. The WS-1 was cultured in DMEM+10% fetal calf serum. The cells were plated in a volume of 100 μL at a density of 5000 cells per well and incubated at 37° C.+5% CO2 for 24 h to promote cell adhesion.
The plates were incubated at 37° C.+5% CO2 for 48 h. The cells were then washed with 100 μL of HBSS and 150 μL of a 2% resazurin were added to the wells.
The therapeutic index is the ratio between the toxicity on normal cells, in this case fibroblast, and the toxicity on bacteria.

Corynebacterium jeikeium = test: Antibiotic assay (resazurin, Example 1), Corynebacterium jeikeium; assay type: cell-based; conditions: Coryne. jeikeium 14139
Description: as §1, §2, §4

Streptococcus pneumoniae = test: Antibiotic assay (resazurin, Example 1), Streptococcus pneumoniae; assay type: cell-based; conditions: for IC50: read-out: IC50
Description: as §1, §2, §4

S. aureus = test: Antibiotic assay (resazurin, Example 1), S. aureus strains of Table 3; assay type: cell-based, Staphylococcus aureus; conditions: for IC50: read-out: IC50
From the text: as §1, §2

With `O=C(CCc1ccccc1)c1c(O)cc(O)c(C/C=C/c2ccc(O)cc2)c1O` [Compound III] the “Minimum Inhibitory Concentration (MIC)” value ([1]; MRSA 1) was “(5.5) μM”, the IC50 ([1]; MRSA 1) was 2400 ± 200 nM and the “Minimum Inhibitory Concentration (MIC)” value ([1]; MRSA 2) was “(4.89) μM”. For the same molecule, the IC50 ([1]; MRSA 2) was 2300 ± 200 nM, the “Minimum Inhibitory Concentration (MIC)” value ([1]; MRSA 3) was “(5.11) μM” and the IC50 ([1]; MRSA 3) was 2200 ± 200 nM. The “Minimum Inhibitory Concentration (MIC)” value ([1]; MRSA 4) was “(4.53) μM”, the IC50 ([1]; MRSA 4) was 2200 ± 200 nM and the “Minimum Inhibitory Concentration (MIC)” value ([1]; MRSA 5) was “(4.27) μM”. For the same molecule, the IC50 ([1]; MRSA 5) was 2300 ± 200 nM, the “Minimum Inhibitory Concentration (MIC)” value ([1]; MRSA 6) was “(5.03) μM” and the IC50 ([1]; MRSA 6) was 2200 ± 200 nM. The “Minimum Inhibitory Concentration (MIC)” value ([1]; MRSA 7) was “(4.93) μM”, the IC50 ([1]; MRSA 7) was 2400 ± 200 nM and the “Minimum Inhibitory Concentration (MIC)” value ([1]; MRSA 8) was “(4.98) μM”. For the same molecule, the IC50 ([1]; MRSA 8) was 2200 ± 200 nM, the “Minimum Inhibitory Concentration (MIC)” value ([1]; MRSA 9) was “(5.77) μM” and the IC50 ([1]; MRSA 9) was 2300 ± 200 nM. For the same molecule, the “Minimum Inhibitory Concentration (MIC)” value ([1]; MRSA 10) was “(5.31) μM”, the IC50 ([1]; MRSA 10) was 2800 ± 200 nM and the “Minimum Inhibitory Concentration (MIC)” value ([2]; S. aureus WT (ATCC 25923)) was “(5.81) μM”. The IC50 ([2]; S. aureus WT (ATCC 25923), read-out: IC50) was 2200 ± 600 nM, the IC50 ([2]; Table 5, same values as IC50 of Table 2, read-out: S. aureus WT ATCC 25923 (toxicity on bacteria)) was 2200 ± 600 nM and the “Minimum Inhibitory Concentration (MIC)” value (Enterococcus faecalis; Ent. Faecalis 14078) was “(>200) μM”. The IC50 (Enterococcus faecalis; Ent. Faecalis 14078) was over 200000 nM, the “Minimum Inhibitory Concentration (MIC)” value (Enterococcus faecalis; Ent. Faecalis 14115) was “(>200) μM” and the IC50 (Enterococcus faecalis; Ent. Faecalis 14115) was over 200000 nM. For the same molecule, the “activity against Enterococcus faecalis” value (Enterococcus faecalis; in words) was “No activity”, the IC50 (S. epidermidis; S. epidermidis 14069) was 4500 ± 300 nM and the “Minimum Inhibitory Concentration (MIC)” value (S. epidermidis; S. epidermidis 14069) was “(10.9) μM”. For the same molecule, the IC50 (S. epidermidis; S. epidermidis 14085) was 3600 ± 400 nM, the “Minimum Inhibitory Concentration (MIC)” value (S. epidermidis; S. epidermidis 14085) was “(11.6) μM” and the IC50 (S. epidermidis; S. epidermidis 14093) was 6300 ± 600 nM. The “Minimum Inhibitory Concentration (MIC)” value (S. epidermidis; S. epidermidis 14093) was “(8.43) μM”, the IC50 (S. epidermidis; S. epidermidis 14134) was 3000 ± 600 nM and the “Minimum Inhibitory Concentration (MIC)” value (S. epidermidis; S. epidermidis 14134) was “(14.7) μM”. For the same molecule, the IC50 (S. epidermidis; S. epidermidis 14143) was 4410 ± 40 nM, the “Minimum Inhibitory Concentration (MIC)” value (S. epidermidis; S. epidermidis 14143) was “(9) μM” and the “activity on S. epidermidis compared with ciprofloxacin” value (S. epidermidis; in words) was “more active than ciprofloxacin”. For the same molecule, the “Minimum Inhibitory Concentration (MIC)” value (Streptococcus pyogenes; Strep. pyogenes 14149) was “(>200) μM”, the IC50 (Streptococcus pyogenes; Strep. pyogenes 14149) was over 200000 nM and the “Minimum Inhibitory Concentration (MIC)” value (Streptococcus pyogenes; Strep. pyogenes 14152) was “(>200) μM”. For the same molecule, the IC50 (Streptococcus pyogenes; Strep. pyogenes 14152) was 174000 ± 10000 nM, the “activity against Streptococcus pyogenes strain 14152” value (Streptococcus pyogenes; in words) was “active” and the “WS-1 (toxicity on normal cells, fibroblast)” value (WS-1 cell lines) was 20 ± 3. The “Minimum Inhibitory Concentration (MIC)” value (Corynebacterium jeikeium) was “(200) μM”, the IC50 (Corynebacterium jeikeium; read-out: IC50) was 9000 ± 2000 nM and the “Minimum Inhibitory Concentration (MIC)” value (Streptococcus pneumoniae; Strep. pneumoniae 14070) was “(>200) μM”. The IC50 (Streptococcus pneumoniae; Strep. pneumoniae 14070) was 124000 ± 5000 nM, the “Minimum Inhibitory Concentration (MIC)” value (Streptococcus pneumoniae; Strep. pneumoniae 14112) was “(190) μM” and the IC50 (Streptococcus pneumoniae; Strep. pneumoniae 14112) was 89000 ± 5000 nM. The “Minimum Inhibitory Concentration (MIC)” value (Streptococcus pneumoniae; Strep. pneumoniae 14138) was “(>200) μM”, the IC50 (Streptococcus pneumoniae; Strep. pneumoniae 14138) was over 200000 nM and the “Minimum Inhibitory Concentration (MIC)” value (Streptococcus pneumoniae; Strep. pneumoniae 14144) was “(>200) μM”. For the same molecule, the IC50 (Streptococcus pneumoniae; Strep. pneumoniae 14144) was over 200000 nM, the “Minimum Inhibitory Concentration (MIC)” value (Streptococcus pneumoniae; Strep. pneumoniae 14148) was “(200) μM” and the IC50 (Streptococcus pneumoniae; Strep. pneumoniae 14148) was 93000 ± 7000 nM. The “activity against Streptococcus pneumoniae 14070 strain” value (Streptococcus pneumoniae; in words) was “active”, the “activity against Streptococcus pneumoniae strain 14144” value (Streptococcus pneumoniae; in words) was “not active” and the “Minimum Inhibitory Concentration (MIC)” value (S. aureus; S. aureus 14094) was “(5.5) μM”. The IC50 (S. aureus; S. aureus 14094) was 2400 ± 200 nM, the “Minimum Inhibitory Concentration (MIC)” value (S. aureus; S. aureus 14108) was “(5.25) μM” and the IC50 (S. aureus; S. aureus 14108) was 2700 ± 200 nM. For the same molecule, the “Minimum Inhibitory Concentration (MIC)” value (S. aureus; S. aureus 14118) was “(3.46) μM”, the IC50 (S. aureus; S. aureus 14118) was 2300 ± 100 nM and the “Minimum Inhibitory Concentration (MIC)” value (S. aureus; S. aureus 14154) was “(4.95) μM”. For the same molecule, the IC50 (S. aureus; S. aureus 14154) was 1500 ± 100 nM.

Reference: patent US9499509B2, “Dihydrochalcone derivatives and their use as antibiotic agents” (UNIVERSITÉ DU QUÉBEC À CHICOUTIMI, priority 2012, dated 2016)
